Assay results reported in US10829520B2, “Beta-hairpin peptidomimetics” (POLYPHOR AG, priority 2015, dated 2020).
Where a SMILES comes first, the peptide text is derived from it. Bridges are numbered along the chain shown (N, C = ends). Roman numbers before positions name the chains, in order. [ ]: non-standard residue; d: D form. Tle = CC(C)(C)[C@H](N)C(=O)O; dDab = NCC[C@@H](N)C(=O)O; hSer = N[C@@H](CCO)C(=O)O; Nle = CCCC[C@H](N)C(=O)O; Orn = NCCC[C@H](N)C(=O)O; Dab = NCC[C@H](N)C(=O)O

Experiments:
Format in all cases: cell-based
[1] = system: Acinetobacter baumannii 872842; conditions: 872842
Escherichia coli 926415 = conditions: 926415
[2] = system: Klebsiella pneumoniae SSI #3010; conditions: SSI #3010
Procedure, shortened: (§1)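 Antibacterial activity is measured as MIC (μg/mL) by standard CLSI microdilution. Inocula of about 10^6 CFU/mL in MH-II broth meet two-fold peptide dilutions in medium with 0.002% Polysorbate 80, and growth is scored visually after 18-20 hours at 35° C.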

[3] = system: Escherichia coli ATCC 25922; conditions: ATCC 25922
Procedure, shortened: as §1

[4] = system: Pseudomonas aeruginosa ATCC 27853; conditions: ATCC 27853
Procedure, shortened: as §1

[5] = system: Acinetobacter baumannii DSM 30008; conditions: DSM 30008
Procedure, shortened: as §1

[6] = system: Klebsiella pneumoniae 968733; conditions: 968733
[7] = system: human red blood cells (hRBC); experiment: Hemolysis of human red blood cells; conditions: red cells of human, 1 h
Procedure, shortened: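 Fresh human red blood cells are washed in PBS, then shaken with peptide (100 μg/mL) at 37° C. for 1 h, final erythrocyte density about 0.9×10^9 cells/mL. After centrifugation, diluted supernatants are read at 540 nm against buffer (0%) and Triton X-100 (100%) lysis controls.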

SMILES	Acinetobacter baumannii 872842 MIC [1] [µg/mL]	Escherichia coli 926415 MIC (Escherichia coli 926415) [µg/mL]	Klebsiella pneumoniae SSI #3010 MIC [2] [µg/mL]	Escherichia coli ATCC 25922 MIC [3] [µg/mL]	Pseudomonas aeruginosa ATCC 27853 MIC [4] [µg/mL]	Acinetobacter baumannii DSM 30008 MIC [5] [µg/mL]	Klebsiella pneumoniae 968733 MIC [6] [µg/mL]	Hemolysis at 100 μg/mL [7]; 100 [%]	Hemolysis at 100 μg/mL ([7]; 100 μg/mL) [%]
CC(C)C[C@@H]1NC(=O)[C@@H](CC(C)C)NC(=O)[C@H](CCN)NC(=O)[C@@H](NC(=O)[C@H](CCN)NC(=O)[C@@H](NC(=O)[C@H](CCN)NC(=O)CC[C@@H]2NC(=O)[C@H](CCN)NC(=O)[C@H](Cc3ccc(O)cc3)NC(=O)[C@H]([C@@H](C)O)NC(=O)[C@H](C(C)C)NC(=O)[C@@H]3CCCN3C(=O)[C@@H](C)NC(=O)[C@H](CO)NC(=O)[C@H](C)NC(=O)[C@H](C(C)(C)C)NC(=O)[C@H](CCO)NC(=O)[C@H](Cc3c[nH]c4ccccc34)NC(=O)[C@H](CCO)NC(=O)[C@@H](CCN)NC2=O)[C@@H](C)O)CCNC(=O)[C@H]([C@@H](C)O)NC(=O)[C@H](CCN)NC(=O)[C@H](CCN)NC1=O [Ex. 103] (I: cyclo([dDab][hSer]W[hSer][Tle]AS[dA]PVTY[Dab]E) / II: [Dab]T[Dab][Dab][Dab][dL]L[Dab][Dab]T; amide I:14-II:N; lactam II:4-II:C)	0.25	0.125	0.0625	0.625	0.125	0.0625	0.0625	1	
CCCC[C@@H]1NC(=O)[C@@H]2CCCN2C(=O)[C@H]2CCCN2C(=O)[C@H](CO)NC(=O)[C@H](CO)NC(=O)[C@H](C(C)(C)C)NC(=O)[C@@H](NC(=O)[C@@H](N)Cc2c[nH]c3ccccc23)CSSC[C@@H](C(=O)N[C@@H](CCCN)C(=O)N[C@H](C)C(=O)N[C@H](CCN)C(=O)N[C@H]2CCNC(=O)[C@H]([C@@H](C)O)NC(=O)[C@H](CCN)NC(=O)[C@H](CCN)NC(=O)[C@H](CC(C)C)NC(=O)[C@@H](Cc3ccccc3)NC(=O)[C@H](CCN)NC2=O)NC(=O)[C@H](Cc2ccc(O)cc2)NC(=O)[C@H](CO)NC1=O [Ex. 104] (H-WC[Tle]SS[dP]P[Nle]SYC[Orn][dA][dDab][Dab][Dab][dF]L[Dab][Dab]T; disulfide 2-11; lactam 15-C)	0.25	0.25	0.5	0.25	1	0.5	1		3
CCCC[C@@H]1NC(=O)[C@@H]2CCCN2C(=O)[C@H]2CCCN2C(=O)[C@H](CO)NC(=O)[C@H](CO)NC(=O)[C@H](C(C)(C)C)NC(=O)[C@@H](NC(=O)[C@@H](N)Cc2c[nH]c3ccccc23)CSSC[C@@H](C(=O)N[C@@H](CCCN)C(=O)N[C@H](Cc2ccccc2)C(=O)N[C@H](CCN)C(=O)N[C@H]2CCNC(=O)[C@H]([C@@H](C)O)NC(=O)[C@H](CCN)NC(=O)[C@H](CCN)NC(=O)[C@H](CC(C)C)NC(=O)[C@@H](Cc3ccccc3)NC(=O)[C@H](CCN)NC2=O)NC(=O)[C@H](Cc2ccc(O)cc2)NC(=O)[C@H](CO)NC1=O [Ex. 105] (H-WC[Tle]SS[dP]P[Nle]SYC[Orn][dF][dDab][Dab][Dab][dF]L[Dab][Dab]T; disulfide 2-11; lactam 15-C)	0.25	0.125	0.5	0.25	1	0.5	1		1.7
CCCC[C@@H]1NC(=O)[C@@H]2CCCN2C(=O)[C@H]2CCCN2C(=O)[C@H](CO)NC(=O)[C@H](CO)NC(=O)[C@H](C(C)(C)C)NC(=O)[C@@H](NC(=O)[C@@H](N)Cc2c[nH]c3ccccc23)CSSC[C@@H](C(=O)N[C@H](CCN)C(=O)N[C@@H](CCN)C(=O)N[C@H](CCN)C(=O)N[C@H]2CCNC(=O)[C@H]([C@@H](C)O)NC(=O)[C@H](CCN)NC(=O)[C@H](CCN)NC(=O)[C@H](CC(C)C)NC(=O)[C@@H](Cc3ccccc3)NC(=O)[C@H](CCN)NC2=O)NC(=O)[C@H](Cc2ccc(O)cc2)NC(=O)[C@H](CO)NC1=O [Ex. 106] (H-WC[Tle]SS[dP]P[Nle]SYC[dDab][Dab][dDab][Dab][Dab][dF]L[Dab][Dab]T; disulfide 2-11; lactam 15-C)	0.125	0.125	0.125	0.125	0.25	0.25	0.5		1
CCCC[C@@H]1NC(=O)[C@@H]2CCCN2C(=O)[C@H]2CCCN2C(=O)[C@H](CO)NC(=O)[C@H](CO)NC(=O)[C@H](C(C)(C)C)NC(=O)[C@@H](NC(=O)[C@@H](N)Cc2c[nH]c3ccccc23)CSSC[C@@H](C(=O)N[C@@H](C(=O)N[C@@H](CCN)C(=O)N[C@H](CCN)C(=O)N[C@H]2CCNC(=O)[C@H]([C@@H](C)O)NC(=O)[C@H](CCN)NC(=O)[C@H](CCN)NC(=O)[C@H](CC(C)C)NC(=O)[C@@H](Cc3ccccc3)NC(=O)[C@H](CCN)NC2=O)[C@H](C)O)NC(=O)[C@H](Cc2ccc(O)cc2)NC(=O)[C@H](CO)NC1=O [Ex. 107] (H-WC[Tle]SS[dP]P[Nle]SYC[dT][Dab][dDab][Dab][Dab][dF]L[Dab][Dab]T; disulfide 2-11; lactam 15-C)	0.125	0.125	0.5	0.125	0.25	0.0625	0.5		0.3
CCCC[C@@H]1NC(=O)[C@@H]2CCCN2C(=O)[C@H]2CCCN2C(=O)[C@H](CO)NC(=O)[C@H](CO)NC(=O)[C@H](C(C)(C)C)NC(=O)[C@@H](NC(=O)[C@@H](N)Cc2c[nH]c3ccccc23)CSSC[C@@H](C(=O)N[C@@H](CCC(=O)O)C(=O)N[C@@H](CCN)C(=O)N[C@@H](CCN)C(=O)N[C@H]2CCNC(=O)[C@H]([C@@H](C)O)NC(=O)[C@H](CCN)NC(=O)[C@H](CCN)NC(=O)[C@H](CC(C)C)NC(=O)[C@@H](Cc3ccccc3)NC(=O)[C@H](CCN)NC2=O)NC(=O)[C@H](Cc2ccc(O)cc2)NC(=O)[C@H](CO)NC1=O [Ex. 108] (H-WC[Tle]SS[dP]P[Nle]SYCE[Dab][Dab][Dab][Dab][dF]L[Dab][Dab]T; disulfide 2-11; lactam 15-C)	1	0.5	2	1	1	1	2		2
CCCC[C@@H]1NC(=O)[C@@H]2CCCN2C(=O)[C@H]2CCCN2C(=O)[C@H](CO)NC(=O)[C@H](CO)NC(=O)[C@H](C(C)(C)C)NC(=O)[C@@H](NC(=O)[C@@H](N)Cc2c[nH]c3ccccc23)CSSC[C@@H](C(=O)N[C@H](Cc2ccc(O)cc2)C(=O)N[C@@H](CCN)C(=O)N[C@@H](CCN)C(=O)N[C@H]2CCNC(=O)[C@H]([C@@H](C)O)NC(=O)[C@H](CCN)NC(=O)[C@H](CCN)NC(=O)[C@H](CC(C)C)NC(=O)[C@@H](Cc3ccccc3)NC(=O)[C@H](CCN)NC2=O)NC(=O)[C@H](Cc2ccc(O)cc2)NC(=O)[C@H](CO)NC1=O [Ex. 109] (H-WC[Tle]SS[dP]P[Nle]SYC[dY][Dab][Dab][Dab][Dab][dF]L[Dab][Dab]T; disulfide 2-11; lactam 15-C)	0.5	0.5	1	0.25	1	0.5	1		<1
